PubChem BioAssay (NCI)
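In this assay, cells in 96-well plates receive the compound at five concentrations for 48 hours. Endpoints are linearly interpolated between the surrounding concentrations. TGI: total growth inhibition.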

Legend:
Assay in all cases: DTP human tumour cell line panel, 48 h
[1] = test system: SW-620 colon
[2] = test system: UACC-62 melanoma
[3] = test system: NCI-H226 lung
[4] = test system: SF-295 CNS
[5] = test system: MDA-MB-435
[6] = test system: HCT-15 colon
[7] = test system: OVCAR-4 ovarian
[8] = test system: HS 578T breast
[9] = test system: HOP-62 NSCLC
[10] = test system: SF-539 CNS
[11] = test system: A498 renal
[12] = test system: NCI-H522 lung
[13] = test system: CCRF-CEM leukemia
[14] = test system: OVCAR-3 ovarian
[15] = test system: MDA-N
[16] = test system: IGROV1 ovarian
[17] = test system: UO-31 renal
[18] = test system: EKVX NSCLC
[19] = test system: UACC-257 melanoma
[20] = test system: NCI-H23 lung
[21] = test system: A549 NSCLC
[22] = test system: T-47D breast
[23] = test system: BT-549 breast
[24] = test system: SN12C renal
[25] = test system: MCF7 breast
[26] = test system: HOP-92 NSCLC
[27] = test system: OVCAR-5 ovarian
[28] = test system: SK-OV-3 ovarian
[29] = test system: SNB-75 CNS
[30] = test system: NCI/ADR-RES ovarian
[31] = test system: HL-60(TB) leukemia
[32] = test system: TK-10 renal
[33] = test system: SNB-19 CNS
[34] = test system: U251 CNS
[35] = test system: M14 melanoma
[36] = test system: SR leukemia
[37] = test system: 786-0 renal
[38] = test system: PC-3 prostate
[39] = test system: SK-MEL-5 melanoma
[40] = test system: HT29 colon
[41] = test system: COLO 205 colon
[42] = test system: NCI-H460 lung
[43] = test system: MDA-MB-231 breast
[44] = test system: SK-MEL-2 melanoma
[45] = test system: RPMI-8226 leukemia
[46] = test system: ACHN renal
[47] = test system: SK-MEL-28 melanoma
[48] = test system: KM12 colon
[49] = test system: OVCAR-8 ovarian
[50] = test system: SF-268 CNS
[51] = test system: MALME-3M melanoma
[52] = test system: HCT-116 colon
[53] = test system: DU-145 prostate
[54] = test system: RXF 393 renal
[55] = test system: K-562 leukemia
[56] = test system: CAKI-1 renal
[57] = test system: MOLT-4 leukemia
[58] = test system: HCC-2998 colon
[59] = test system: LOX IMVI melanoma

COC(NC(N)=O)C(=O)O (stereo unspecified)
TGI [1]: > 100 µM
TGI [2]: > 100 µM
TGI [3]: > 100 µM
TGI [4]: > 100 µM
TGI [5]: > 100 µM
TGI [6]: > 100 µM
TGI [7]: > 100 µM
TGI [8]: > 100 µM
TGI [9]: > 100 µM
TGI [10]: > 100 µM
TGI [11]: > 100 µM
TGI [12]: > 100 µM
TGI [13]: > 100 µM
TGI [14]: > 100 µM
TGI [15]: > 100 µM
TGI [16]: > 100 µM
TGI [17]: > 100 µM
TGI [18]: > 100 µM
TGI [19]: > 100 µM
TGI [20]: > 100 µM
TGI [21]: > 100 µM
TGI [22]: > 100 µM
TGI [23]: > 100 µM
TGI [24]: > 100 µM
TGI [25]: > 100 µM
TGI [26]: > 100 µM
TGI [27]: > 100 µM
TGI [28]: > 100 µM
TGI [29]: > 100 µM
TGI [30]: > 100 µM
TGI [31]: > 100 µM
TGI [32]: > 100 µM
TGI [33]: > 100 µM
TGI [34]: > 100 µM
TGI [35]: > 100 µM
TGI [36]: > 100 µM
TGI [37]: > 100 µM
TGI [38]: > 100 µM
TGI [39]: > 100 µM
TGI [40]: > 100 µM
TGI [41]: > 100 µM
TGI [42]: > 100 µM
TGI [43]: > 100 µM
TGI [44]: > 100 µM
TGI [45]: > 100 µM
TGI [46]: > 100 µM
TGI [47]: > 100 µM
TGI [48]: > 100 µM
TGI [49]: > 100 µM
TGI [50]: > 100 µM
TGI [51]: > 100 µM
TGI [52]: > 100 µM
TGI [53]: > 100 µM
TGI [54]: > 100 µM
TGI [55]: > 100 µM
TGI [56]: > 100 µM
TGI [57]: > 100 µM

C/C(=N/NC(=S)Nc1cccc(Cl)c1)c1ccccn1
TGI [1]: 17.9 µM
TGI [2]: 2.49 µM
TGI [3]: 2.59 µM
TGI [4]: 9.39 µM
TGI [58]: 17.5 µM
TGI [5]: 15.4 µM
TGI [6]: 16.1 µM
TGI [7]: 16.9 µM
TGI [8]: 10.1 µM
TGI [9]: 3.5 µM
TGI [10]: 3.35 µM
TGI [11]: 7.56 µM
TGI [12]: 2.41 µM
TGI [13]: > 15.9 µM
TGI [14]: 12.3 µM
TGI [15]: 15.5 µM
TGI [16]: 9.29 µM
TGI [17]: 5.03 µM
TGI [18]: 3.33 µM
TGI [19]: 2.41 µM
TGI [20]: 9.97 µM
TGI [21]: 10.1 µM
TGI [22]: 1.05 µM
TGI [23]: 16 µM
TGI [24]: 7.04 µM
TGI [25]: 5.17 µM
TGI [26]: 11.1 µM
TGI [27]: 3.46 µM
TGI [28]: 10.4 µM
TGI [29]: 11.7 µM
TGI [30]: 4.58 µM
TGI [31]: 0.5 µM
TGI [32]: 10.4 µM
TGI [33]: 16.9 µM
TGI [59]: 9.49 µM
TGI [34]: 8.26 µM
TGI [35]: 3.82 µM
TGI [36]: 1.99 µM
TGI [37]: 12.9 µM
TGI [38]: 15.1 µM
TGI [39]: 4 µM
TGI [40]: 13.9 µM
TGI [41]: 5.18 µM
TGI [42]: 5.46 µM
TGI [43]: 10.3 µM
TGI [44]: 8.92 µM
TGI [45]: 17.8 µM
TGI [46]: 8.13 µM
TGI [47]: 16 µM
TGI [48]: 13.5 µM
TGI [49]: 9.29 µM
TGI [50]: 12.5 µM
TGI [51]: 10 µM
TGI [52]: 12.2 µM
TGI [53]: 4.98 µM
TGI [54]: 9.76 µM
TGI [55]: 2.85 µM
TGI [56]: 11.8 µM
TGI [57]: 1.47 µM
